Assay results: patent publication US10973912B2, “Treatment for myopathy” (Children's Medical Center Corporation, priority 2015, dated 2021)
Entries after “also recorded” stand apart in the source; their conditions may differ.

Experiments:
Format in all cases: in vivo, zebrafish (Danio rerio)
ryr1b mutants [1] = assay: Kaplan-Meier survival of ryr1b mutants; settings: 10 μg/mL from 1 to 50 dpf
Method: Kaplan-Meier survival curves of ryr1b mutants treated with either DMSO or NIF (10 μg/mL) from 1 to 50 dpf. Mutants were sorted from unaffected controls at 5 dpf using a touch-evoked escape behavior assay. Untreated fish all died by 35 days of life. Median survival of DMSO-versus NIF-treated mutants was 15.0 and 13.0 days, respectively.
In addition to their muscular defects, ryr1b mutants die prematurely^30. To examine whether long-term treatment with NIF positively impacts the life span of ryr1b mutants, affected larvae (selected at 5 dpf by touch-evoked escape behavior assay) were treated with compound from 1 to 50 dpf.

ryr1b zebrafish = assay: Activity monitoring (Noldus Daniovision), spontaneous swimming at 20 dpf; settings: long-term treatment
Method: In FIG. 10A, body angles of ryr1b mutants after 20 days of NIF treatment (10.0 μg/mL) are corrected and statistically indistinguishable from wild-type controls. […] Angles were measured by first drawing/extending straight lines between the eyes of the larva as well as along the midline of the trunk (shown by dotted red lines). The angle of intersection was determined using Adobe Photoshop CS3 software (WT-DMSO: 179.1±0.9°, n=6; WT-NIF: 176.8±1.1°, n=6; ryr1b-DMSO: 142.6±6.2°, n=11; ryr1b-NIF: 174.4±2.0°, n=4). Significance was determined by a one-way ANOVA (F=13.60, P<0.0001), followed by pairwise Tukey's HSD post hoc tests. […] Significance was determined by a one-way ANOVA (F=10.03, P=0.0009), followed by pairwise Tukey's HSD post hoc tests. […]
Zebrafish behavioral parameters were defined using the Noldus Daniovision activity monitoring system. […] Swimming behaviors were recorded over the entire 2.0-hour period with an infrared light source. […] Behavioral parameters recorded include frequency, mean velocity, total distance, and cumulative duration of movement, and reflect the average of all larvae in an experimental group.
Next, to determine if long-term NIF treatment affects ryr1b motor functions, spontaneous swimming behaviors of 20 dpf larvae were quantified using the Noldus Daniovision. […]

phosphorylated Stat3 = assay: Western blot of phosphorylated Stat3 at 5 dpf; settings: 10 μg/mL, normalized to β-Actin
Method: In two independent experiments, two pools of 20 larvae from heterozygous ryr1b matings were treated with DMSO or with one of three different concentrations of NIF (1.0-100.0 μg/mL) at 1 dpf and evaluated in terms of touch-evoked escape behaviors at 5 dpf (n=40). Following phenotypic scoring, all living embryos were genotyped using three-primer genomic PCR. Swimming scores for larvae genotype-confirmed as ryr1b homozygous mutants are shown as a percentage of the total number of living larvae in each dose category: 1=poor swimming; 2 or 3=moderate or wild-type swimming. NIF improved mobility of ryr1b mutants at a dose of 10 μg/mL. […] Phospho-Stat3 band intensities were normalized to β-Actin control bands and quantified in Image J (NIH).
Western blotting was performed on groups of 50-100 wild-type or mutant zebrafish larvae at 5 dpf. […] Phospho-Stat3 band intensities were normalized to control bands and quantified in Image J (NIH).
To determine whether zebrafish stat3 is differentially expressed in the wild-type and Ryr1-deficient background, quantitative real-time RT-PCR was performed using fluorescently tagged Taqman probes.

ryr1b mutants [2] = assay: Body angle measurement after 20 days of treatment
Method: In FIG. 10A, body angles of ryr1b mutants after 20 days of NIF treatment (10.0 μg/mL) are corrected and statistically indistinguishable from wild-type controls. […] Angles were measured by first drawing/extending straight lines between the eyes of the larva as well as along the midline of the trunk (shown by dotted red lines). The angle of intersection was determined using Adobe Photoshop CS3 software (WT-DMSO: 179.1±0.9°, n=6; WT-NIF: 176.8±1.1°, n=6; ryr1b-DMSO: 142.6±6.2°, n=11; ryr1b-NIF: 174.4±2.0°, n=4). Significance was determined by a one-way ANOVA (F=13.60, P<0.0001), followed by pairwise Tukey's HSD post hoc tests. […] Three independent trials were performed with larvae from three different clutches, examining a total of 14-20 wild-type and ryr1b larvae from both DMSO- and NIF-treated groups. Genotypes of individual embryos were confirmed by genomic PCR following the study. Significance was determined by a one-way ANOVA (F=10.03, P=0.0009), followed by pairwise Tukey's HSD post hoc tests. […] One representative 20-minute time interval within the recording period is shown.
This bending is likely a consequence of skeletal muscle weakness, and may be analogous to neck and trunk flexor weakness observed in human patients with MmD (FIG. 10A). To determine if NIF could correct this abnormality, larvae were treated with the compound from 1 to 20 dpf. After 20 days, body angles were measured as the angle of intersection between two lines, one drawn between the eyes of each larva and one drawn along the trunk midline. […] These improvements in morphology reflect long-term strengthening of ryr1b skeletal muscles as a result of exposure to NIF.

## O=C(N/N=C/c1ccc([N+](=O)[O-])o1)c1ccc(O)cc1 [Nifuroxazide]
ryr1b mutants [1]; listed as NIF
  survival of ryr1b mutants: did not significantly differ; also recorded: two affected fish treated with NIF survived until termination of the study
ryr1b mutants [1]; ryr1b mutants, DMSO 15.0 days, log-rank P=0.5
  median survival: 13.0 days
ryr1b zebrafish
  distance travelled during 2.0-hour period: large and robust increase on the distance travelled by ryr1b zebrafish
Phosphorylated Stat3
  levels of phosphorylated Stat3 protein: larger decrease in ryr1b mutants than in unaffected controls
ryr1b mutants [2]; 20 days of treatment, 10.0 μg/mL, WT, n=6
  body angle, wild-type larvae: 176.8±1.1 °
ryr1b mutants [2]; 20 days of treatment, 10.0 μg/mL, ryr1b, n=4, ryr1b-DMSO 142.6±6.2
  body angle, ryr1b mutants: 174.4±2.0 °
ryr1b mutants [2]; treated from 1 to 20 dpf
  body angles of treated ryr1b mutants: significantly increased and statistically indistinguishable from unaffected controls
